30 compounds from patent publication US20250084074A1, “SUBSTITUTED HETEROCYCLES AS HSET INHIBITORS” (MERCK PATENT GMBH, priority 2022, published 2025) can be followed below.

SMILES strings stand for the structures. Structures can show the parent of a compound that is named as a salt.

Chain of HSET full length protein (Q9BW19 whole entry): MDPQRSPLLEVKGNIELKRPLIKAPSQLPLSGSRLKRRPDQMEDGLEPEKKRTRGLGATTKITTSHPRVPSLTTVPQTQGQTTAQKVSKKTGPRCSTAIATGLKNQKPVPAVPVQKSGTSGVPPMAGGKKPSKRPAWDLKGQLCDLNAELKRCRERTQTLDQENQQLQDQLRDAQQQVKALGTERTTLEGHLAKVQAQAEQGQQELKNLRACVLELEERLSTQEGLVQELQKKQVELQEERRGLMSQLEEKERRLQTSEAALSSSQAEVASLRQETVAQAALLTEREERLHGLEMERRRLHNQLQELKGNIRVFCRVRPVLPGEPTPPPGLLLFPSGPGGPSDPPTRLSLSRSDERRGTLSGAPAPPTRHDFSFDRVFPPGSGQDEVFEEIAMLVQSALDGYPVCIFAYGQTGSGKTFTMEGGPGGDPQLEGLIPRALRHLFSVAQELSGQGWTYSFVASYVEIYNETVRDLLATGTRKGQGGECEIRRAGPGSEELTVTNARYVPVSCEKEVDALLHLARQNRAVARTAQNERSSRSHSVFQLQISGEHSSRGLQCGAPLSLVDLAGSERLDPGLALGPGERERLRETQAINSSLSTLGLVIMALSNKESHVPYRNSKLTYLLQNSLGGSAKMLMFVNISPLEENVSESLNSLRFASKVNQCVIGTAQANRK

The target in the assay is HSET full length protein (Homo sapiens (Human), UniProt Q9BW19). The assay is described as follows: HSET ADP-Glo Assay S - 3 μM ATP. The class given is biochemical. The settings on record: 5 nM HSET, 70 μg/mL microtubule, 80 min at rt, read-out: COMBINED HSET ADP GLO IC50. In short, it runs like this:
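ADP-Glo luminescence read-out: ATPase reaction at 3 μM ATP, 80 min at room temperature, after a 10 min compound preincubation. Enzyme was full-length human HSET at 5 nM, stimulated by 70 μg/mL paclitaxel-stabilised bovine microtubules in HEPES pH 6.8 buffer with MgCl2, EGTA, Triton X-100 and DTT.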
In general terms: ADP-Glo first removes unused ATP, then detects ADP through luciferase.
As usually defined, the IC50 is the concentration needed to halve the response being measured. Turning to `Cc1nc(NC(=O)[C@H]2C[C@@H](NC(=O)c3cccc(-c4ncon4)c3)C2)sc1C(=O)OC(C)(C)C` [Example 105, tert-Butyl 2-((1s,3s)-3-(3-(1,2,4-oxadiazol-3-yl)benzamido)cyclobutane-1-carboxamido)-4-methylthiazole-5-carboxylate], the IC50 came to 1590 nM.

As for `Cc1nnc(-c2cccc(C(=O)N[C@H]3C[C@@H](C(=O)Nc4nc(C)c(C(=O)OC(C)(C)C)s4)C3)c2)o1` [Example 106, tert-Butyl 4-methyl-2-((1s,3s)-3-(3-(5-methyl-1,3,4-oxadiazol-2-yl)benzamido)cyclobutane-1-carboxamido)thiazole-5-carboxylate], the IC50 is 132 nM.

As to `Cc1nc(NC(=O)[C@H]2C[C@@H](NC(=O)c3cccc(-c4nnn(C)n4)c3)C2)sc1C(=O)OC(C)(C)C` [Example 107, tert-Butyl-4-methyl-2-((1s,3s)-3-(3-(2-methyl-2H-tetrazol-5-yl)benzamido)cyclobutane-1-carboxamido)thiazole-5-carboxylate], the IC50 came to 41 nM.

Take `Cc1nc(NC(=O)[C@H]2C[C@@H](Nc3nccc4ccc(Cl)cc34)C2)sc1C(=O)OC(C)(C)C` [Example 108, tert-Butyl 2-((1s,3s)-3-((7-chloroisoquinolin-1-yl)amino)cyclobutane-1-carboxamido)-4-methylthiazole-5-carboxylate]: the IC50 was determined as 1620 nM.

As to `Cc1nc(NC(=O)[C@H]2C[C@@H](Nc3nccc4ccc(C(F)(F)F)cc34)C2)sc1C(=O)OC(C)(C)C` [Example 109, tert-Butyl 4-methyl-2-((1s,3s)-3-((7-(trifluoromethyl)isoquinolin-1-yl)amino)cyclobutane-1-carboxamido)thiazole-5-carboxylate], the IC50 is 1780 nM.

For `Cc1nc(-c2ccc3ccnc(N[C@H]4C[C@@H](C(=O)Nc5nc(C)c(C(=O)OC(C)(C)C)s5)C4)c3c2)no1` [Example 110, tert-Butyl 4-methyl-2-[[3-[[7-(5-methyl-1,2,4-oxadiazol-3-yl)-1-isoquinolyl]amino]cyclobutanecarbonyl]amino]thiazole-5-carboxylate], the IC50 came to 8 nM.

For `Cc1nc(-c2ccc3ccnc(N[C@H]4C[C@@H](C(=O)N(C)c5nc(C)c(C(=O)OC(C)(C)C)s5)C4)c3c2)no1` [Example 111, tert-Butyl 4-methyl-2-[methyl-[3-[[7-(5-methyl-1,2,4-oxadiazol-3-yl)-1-isoquinolyl]amino]cyclobutanecarbonyl]amino]thiazole-5-carboxylate], the IC50 came out at 68 nM.

With `Cc1nc(-c2ccc3ccnc(N[C@H]4C[C@@H](C(=O)Nc5nc(Cl)c(C(=O)OC(C)(C)C)s5)C4)c3c2)no1` [Example 112, tert-Butyl 4-chloro-2-[[3-[[7-(5-methyl-1,2,4-oxadiazol-3-yl)-1-isoquinolyl]amino]cyclobutanecarbonyl]amino]thiazole-5-carboxylate], the IC50 came out at 54 nM.

For `Cc1nc(-c2ccc3ccnc(N[C@H]4C[C@@H](C(=O)Nc5nc(Cl)c(C(=O)NC(C)(C)C)s5)C4)c3c2)no1` [Example 113, N-tert-butyl-4-chloro-2-[[3-[[7-(5-methyl-1,2,4-oxadiazol-3-yl)-1-isoquinolyl]amino]cyclobutanecarbonyl]amino]thiazole-5-carboxamide], the IC50 is 1380 nM.

Take `CCOC(=O)c1sc(NC(=O)[C@H]2C[C@@H](Nc3nccc4ccc(-c5noc(C)n5)cc34)C2)nc1C(F)F` [Example 116, Ethyl-4-(difluoromethyl)-2-[[3-[[7-(5-methyl-1,2,4-oxadiazol-3-yl)-1-isoquinolyl]amino]cyclobutanecarbonyl]amino]thiazole-5-carboxylate]: the IC50 amounted to 144 nM.

Regarding `Cc1ccc2ccnc(N[C@H]3C[C@@H](C(=O)Nc4nc(C)c(C(C)(C)C)s4)C3)c2c1` [Example 117, N-(5-tert-butyl-4-methyl-thiazol-2-yl)-3-[(7-methyl-1-isoquinolyl)amino]cyclobutanecarboxamide], the IC50 came out at 9490 nM.

With `Cc1noc(-c2sc(NC(=O)CCNC(=O)c3cccc(-c4noc(C)n4)c3)nc2C)n1` [Example 118, 3-(5-methyl-1,2,4-oxadiazol-3-yl)-N-(3-((4-methyl-5-(3-methyl-1,2,4-oxadiazol-5-yl)thiazol-2-yl)amino)-3-oxopropyl)benzamide], the IC50 stood at 8410 nM.

For `CCCOC(=O)c1cc(NC(=O)CCNC(=O)c2cccc(-c3noc(C)n3)c2)nn1C` [Example 120, Propyl-1-methyl-3-(3-(3-(5-methyl-1,2,4-oxadiazol-3-yl)benzamido)propanamido)-1 H-pyrazole-5-carboxylate], the IC50 is 157 nM.

Take `CCCOC(=O)c1sc(N(C)C(=O)CCNC(=O)c2cccc(-c3noc(C)n3)c2)nc1C` [Example 121, Propyl-4-methyl-2-(N-methyl-3-(3-(5-methyl-1,2,4-oxadiazol-3-yl)benzamido)propanamido)thiazole-5-carboxylate]: the IC50 was 36 nM.

`Cc1nc(-c2cccc(C(=O)NCCC(=O)Nc3nc(C)c(C(=O)OC4CCCC4)s3)c2)no1` [Example 122, Cyclopentyl-4-methyl-2-(3-(3-(5-methyl-1,2,4-oxadiazol-3-yl)benzamido)propanamido)thiazole-5-carboxylate]: the IC50 was found to be 27 nM.

For `CCCCCCOC(=O)c1sc(NC(=O)CCNC(=O)c2cccc(-c3noc(C)n3)c2)nc1C` [Example 123, Hexyl-4-methyl-2-(3-(3-(5-methyl-1,2,4-oxadiazol-3-yl)benzamido)propanamido)thiazole-5-carboxylate], the IC50 was 9 nM.

As to `Cc1nc(-c2cccc(C(=O)NCCC(=O)Nc3nc(C)c(C(=O)OC4CCCCC4)s3)c2)no1` [Example 124, Cyclohexyl-4-methyl-2-(3-(3-(5-methyl-1,2,4-oxadiazol-3-yl)benzamido)propanamido)thiazole-5-carboxylate], the IC50 worked out at 14 nM.

As to `Cc1nc(-c2cccc(C(=O)NCCC(=O)Nc3nc(C)c(C(=O)OCCCCN)s3)c2)no1` [Example 125, 4-aminobutyl 4-methyl-2-(3-(3-(5-methyl-1,2,4-oxadiazol-3-yl)benzamido)propanamido)thiazole-5-carboxylate hydrochloride], the IC50 is 5590 nM.

Take `COc1ccc(CCCOC(=O)c2sc(NC(=O)CCNC(=O)c3cccc(-c4noc(C)n4)c3)nc2C)cc1` [Example 126, 3-(4-methoxyphenyl)propyl 4-methyl-2-(3-(3-(5-methyl-1,2,4-oxadiazol-3-yl)benzamido)propanamido)thiazole-5-carboxylate]: the IC50 is 39 nM.

On to `COCCOCCCCOC(=O)c1sc(NC(=O)CCNC(=O)c2cccc(-c3noc(C)n3)c2)nc1C` [Example 127, 4-(2-methoxyethoxy)butyl 4-methyl-2-(3-(3-(5-methyl-1,2,4-oxadiazol-3-yl)benzamido)propanamido)thiazole-5-carboxylate], for which the IC50 came out at 55 nM.

With `COC(=O)c1cc(NC(=O)CCNC(=O)c2cccc(-c3noc(C)n3)c2)nn1C` [Example 128, Methyl-2-methyl-5-[3-[[3-(5-methyl-1,2,4-oxadiazol-3-yl)benzoyl]amino]propanoylamino]pyrazole-3-carboxylate], the IC50 was determined as 14100 nM.

For `CCCC(C)c1sc(NC(=O)CCNC(=O)c2cccc(-c3noc(C)n3)c2)nc1C` (stereo not drawn) [Example 129, 3-(5-methyl-1,2,4-oxadiazol-3-yl)-N-(3-((4-methyl-5-(pentan-2-yl)thiazol-2-yl)amino)-3-oxopropyl)benzamide], the IC50 turned out to be 1130 nM.

`CC(=O)NCCCCOC(=O)c1sc(NC(=O)CCNC(=O)c2cccc(-c3noc(C)n3)c2)nc1C` [Example 130, 4-Acetamidobutyl 4-methyl-2-(3-(3-(5-methyl-1,2,4-oxadiazol-3-yl)benzamido)propanamido)thiazole-5-carboxylate]: the IC50 amounted to 15400 nM.

As for `CCCOC(=O)c1cc(NC(=O)CCNc2nccc3ccc(-c4noc(C)n4)cc23)nn1C` [Example 131, Propyl-1-methyl-3-(3-((7-(5-methyl-1,2,4-oxadiazol-3-yl)isoquinolin-1-yl)amino)propanamido)-1 H-pyrazole-5-carboxylate formate], the IC50 stood at 16 nM.

For `Cc1nc(-c2cccc(C(=O)NCCC(=O)Nc3nc(C)c(C(=O)OC(C)(C)C)s3)c2)no1` [Example 132, Tert-butyl-4-methyl-2-(3-(3-(5-methyl-1,2,4-oxadiazol-3-yl)benzamido)propanamido)thiazole-5-carboxylate], the IC50 was found to be 10 nM.

Turning to `CCOC(=O)c1sc(NC(=O)CCNC(=O)c2cccc(-c3noc(C)n3)c2)cc1C` [Example 133, Ethyl-3-methyl-5-[3-[[3-(5-methyl-1,2,4-oxadiazol-3-yl)benzoyl]amino]propanoylamino]thiophene-2-carboxylate], the IC50 came to 93 nM.

As for `CCCN(C(=O)CCNC(=O)c1cccc(-c2noc(C)n2)c1)c1nc(C)c(C(=O)OCC)s1` [Example 134, Ethyl-4-methyl-2-(3-(3-(5-methyl-1,2,4-oxadiazol-3-yl)benzamido)-N-propylpropanamido)thiazole-5-carboxylate], the IC50 was 1310 nM.

On to `CCOC(=O)c1cc(NC(=O)CCNc2nccc3ccc(-c4noc(C)n4)cc23)n[nH]1` [Example 135, Ethyl-3-(3-((7-(5-methyl-1,2,4-oxadiazol-3-yl)isoquinolin-1-yl)amino)propanamido)-1 H-pyrazole-5-carboxylate], for which the IC50 came out at 428 nM.

`Cc1nc(-c2cc(C(=O)NCCC(=O)Nc3nc(C)c(C(=O)OCCCCCCO)s3)cc(C(F)(F)F)c2)no1` [Example 136, 6-Hydroxyhexyl 4-methyl-2-(3-(3-(5-methyl-1,2,4-oxadiazol-3-yl)-5-(trifluoromethyl)benzamido)propanamido)thiazole-5-carboxylate]: the IC50 is 737 nM.

`CCCCc1sc(C(=O)NCCNc2nccc3ccc(-c4noc(C)n4)cc23)nc1C` [Example 137, 5-Butyl-4-methyl-N-(2-((7-(5-methyl-1,2,4-oxadiazol-3-yl)isoquinolin-1-yl)amino)ethyl)thiazole-2-carboxamide formate]: the IC50 was 778 nM.
